This note sets out measurements from patent US12679839B2, “Cyclin-dependent kinase 7 (CDK7) non-covalent inhibitors” (JANSSEN PHARMACEUTICA NV, priority 2020, dated 2026).

The target of assay [1] is T1, CDK7/Cyclin H/MAT-1 complex (Homo sapiens, UniProt P50613).
T1 construct: Human CDK7 (amino acids 1-346); His6 (N); TEV protease cleavage site (N); made in house; host or cells: baculovirus-SF9 insect cells
Briefly: Absorbance kinetic assay (20 nM CDK7/Cyclin H/MAT-1 complex). Type of assay: biochemical. The note with it: for IC50: read-out: CDK7 (20 nM) pIC50 (converted). How it is done: Human CDK7 (amino acids 1-346) containing an N-terminal His6-tag followed by a tobacco etch virus (TEV) protease cleavage site, human MAT1 (amino acids 1-309) and human cyclin H (amino acids 1-323) were co-expressed in the baculovirus-SF9 insect cell expression system to generate a trimeric complex. Cell pellets were collected 72 h post-infection and were resuspended by Dounce homogenization in 20 mM Hepes-NaOH (pH 8.0), 300 mM NaCl, 10% glycerol, 2 mM dithiothreitol DTT), and 20 mM Imidazole supplemented with cOmplete™ Protease Inhibitor Cocktail (Roche) and 25 U/mL Benzonase® Nuclease HC according to the manufacturer's instructions. Cells were lysed by passing through a Microfluidics M110Y Microfluidizer 3 times at 600 kPa followed by centrifugation at 38,000×g at 4° C. for 1 hour. The supernatant was loaded onto a pre-equilibrated HisTrap HP column and eluted in 20 mM Hepes-NaOH (pH 8.0), 50 mM NaCl, 10% glycerol, 2 mM DTT, and 400 mM Imidazole. The eluate was further purified by gel filtration on a Superdex S200 16/60 column and eluted with 20 mM Hepes-NaOH (pH 7.5), 50 mM NaCl, 10% Glycerol, 2 mM DTT. Fractions containing a trimeric complex of CDK7, cyclin H, and MAT1 in a 1:1:1 ratio were pooled and concentrated to 3 mg/mL in a 10 kDa MWCO concentrator, and diluted to a final concentration of 1.6 mg/mL in 11.1 mM Hepes-NaOH (pH 8.0), 27.8 mM NaCl, 1.1 mM DTT and 50% glycerol. […]
Absorbance Kinetic Assay (20 nM CDK7/Cyclin H/MAT-1 Complex)
CDK7 complex catalyzes the ATP-dependent phosphorylation of a peptide substrate CDK7/9-tide that is derived from RNA Pol II to produce phosphorylated peptide and ADP. The kinase reaction product ADP was converted to lactate and NAD^+ in the presence of phosphoenol pyruvate (PEP), NADH and coupling enzymes lactate dehydrogenase (LDH) and pyruvate kinase (PK). CDK7 complex catalytic activity was measured by following the absorbance intensity continuously at 340 nm that corresponds with the depletion of NADH.
Absorbance at 340 nm was followed kinetically at an interval of 2 minutes for 8 hours.
The assay was carried out with 100 μl reaction volume per well in a 384-well plate that was pre-spotted nanoliter volume of compounds by LabCyte Echo 555. Compound dilution plates were made by 2-fold (could vary upon necessity) dilution in DMSO for 11 concentrations plus a DMSO control of uninhibited reaction. 2× substrate and coupling reagent mixture was added to the assay plate followed by an addition of an equal volume of 40 nM CDK7/Cyclin H/MAT-1 complex. After mixing, assay plates were spun at 2000 rpm for 3 minutes and then transferred to the plate reader for data collection.
For reversible inhibitors, the absorbance reaction progress curves were linear. The steady-state rate was derived from the slope of the linear curves. The following equation is applied to determine percent inhibition.
[formula] • νo=max rate (uninhibited rate) • νi=inhibited rate
The IC50 value is calculated by the following equation:
[formula] where νo is the rate in the absence of inhibitor, νmin is the rate at highest inhibitor concentration, and h is the Hill coefficient. Flint Assay (5 nM CDK7/Cyclin H/MAT-1 Complex)

The test system of assay [2] is RNA polymerase II Serine 5 phosphorylation (Rpb1 CTD), downstream substrate of CDK7. Briefly: Imaging-based cellular RNA PolII Ser5 phosphorylation assay in A549 cells. The assay is classed as cell-based, human. The note with it: Homo sapiens, A549, 3 h, challenged with compound for 3 hours, read-out: pRNA polII Ser5 (A549) pIC50 (converted). From the text: Dosing curves were fitted using the following equation to obtain IC50: Y=Bottom+(Top−Bottom)/(1+10^((log IC50−X)*Hill slope)) where X=log10 of the compound concentration; top and bottom can be defined by PC and NC respectively. Imaging-Based Cellular RNA PolII Ser5 Phosphorylation Assay
To evaluate inhibition of CDK7 kinase activity, a 384-well automated imaging assay was used. This assay detects Serine 5 phosphorylation on a unique heptapeptide sequence in the C-terminal domain of Rpb1 subunit of RNA polymerase II, the downstream substrate of CDK7. This heptapeptide sequence is repeated up to 52 times in the CTD of Rpb1.
A549 adenocarcinoma human alveolar basal epithelial cells (ATCC, CCL-185), rabbit Phospho-Rpb1 CTD (Ser5) antibody (D9N51 (Cell Signaling Technology)), DMEM (Sigma), Fetal Bovine Serum (Biowest), L-glutamine (Sigma), Penicillin/Streptomycin (Life Technologies), Sodium Pyruvate (Sigma), Hepes (Sigma), poly-D-lysine coated μclear 384 black plates (Greiner), formaldehyde (PolySciences), D-PBS (Sigma), Methanol (Sigma), Alexa Fluor 488 goat anti rabbit IgG secondary antibody (Life Technologies), HCS CellMask™ Deep Red stain (Life Technologies), Hoechst 33258 (Invitrogen).
RNA Polymerase II Serine 5 phosphorylation was detected using a specific rabbit Phospho-Rpb1 CTD (Ser5) antibody. A549 adenocarcinoma human alveolar basal epithelial cells were seeded in 20 μl medium (DMEM supplemented with 1% Fetal Bovine Serum (heat inactivated 30′ 56° C.), 2 mM L-glutamine, 50 U/ml penicillin 50 μg/ml streptomycin, 1 mM sodium pyruvate and 50 mM hepes) at 1000 cells/well and cultured in poly-D-lysine coated μclear 384 black plates for 20 hours at 37° C. and 5% CO2.
After incubation cells were challenged with compound for 3 hours at 37° C. and 5% CO2. DMSO was used as high control and as low control 10 μM of LDC4297 reference compound was used. 40 nl of test compounds and controls were spotted in cell plates using Echo Liquid Handler (Echo 550, Labcyte). Incubation was followed by 20 minutes fixation with 20 μl 10% formaldehyde at room temperature. Medium/formaldehyde solution was removed, plates were washed 3 times with 30 μl D-PBS (w/o Ca^2+ and Ma^2+) and permeabilization was done by adding 20 μl ice cold methanol for 20 minutes. Cells were washed again 3 times with 30 μl D-PBS and 20 μl blocking buffer (25 ml fetal bovine serum in 500 ml D-PBS) was added for 1 hour.
After removing blocking buffer 20 μl 1/1000 primary antibody rabbit. Phospho-Rpb1 CTD (Ser5) antibody was added which binds to the phosphorylated Serine5 of the heptapeptide sequences in the CTD of Rpb1. Primary antibody was removed, and plates were washed 3 times with 30 μl D-PBS followed by addition of 20 μl 1/2000 Alexa Fluor 488 goat anti rabbit IgG secondary antibody for final detection of Phospho-Rpb1 CTD (Ser5) together with 1/5000 HCS CellMask™ Deep Red stain for membrane staining and 1/5000 Hoechst 33258 for nucleus staining. Last, plates were washed 2 times with 30 μl D-PBS and wells were filled with 40 μL D-PBS, plates were sealed (Thermowell sealing tape) and stored at 4° C. until reading. Plates were read with Opera Phenix (Perkin Elmer) with 10× air objective. Data were calculated and analyzed in Phaedra.
IC50 values were calculated using the following formula:
Average value of all HC's and all LC's are used for normalizations. % Effect=100−(sample−LC)/(HC−LC)×100% Control=(sample/HC)×100
A best-fit curve is fitted by a minimum sum of squares method to the plot of % Control vs. compound concentration. From this an IC50 value can be obtained. An estimate of the slope of the plot in terms of the Hill coefficient is also obtained.

T1 sequence (P50613 whole entry, the tested form may be a part): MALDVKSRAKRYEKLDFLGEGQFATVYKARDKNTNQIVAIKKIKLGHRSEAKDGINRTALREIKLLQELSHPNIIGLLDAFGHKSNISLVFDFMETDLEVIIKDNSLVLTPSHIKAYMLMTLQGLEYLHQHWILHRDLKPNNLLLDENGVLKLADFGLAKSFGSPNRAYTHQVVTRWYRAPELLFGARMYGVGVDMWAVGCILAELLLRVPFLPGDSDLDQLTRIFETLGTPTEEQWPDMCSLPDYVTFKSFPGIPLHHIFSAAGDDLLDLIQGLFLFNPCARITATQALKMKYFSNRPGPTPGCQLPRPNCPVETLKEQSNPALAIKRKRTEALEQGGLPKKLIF
T1 sequence (P51946 whole entry partner, the tested form may be a part): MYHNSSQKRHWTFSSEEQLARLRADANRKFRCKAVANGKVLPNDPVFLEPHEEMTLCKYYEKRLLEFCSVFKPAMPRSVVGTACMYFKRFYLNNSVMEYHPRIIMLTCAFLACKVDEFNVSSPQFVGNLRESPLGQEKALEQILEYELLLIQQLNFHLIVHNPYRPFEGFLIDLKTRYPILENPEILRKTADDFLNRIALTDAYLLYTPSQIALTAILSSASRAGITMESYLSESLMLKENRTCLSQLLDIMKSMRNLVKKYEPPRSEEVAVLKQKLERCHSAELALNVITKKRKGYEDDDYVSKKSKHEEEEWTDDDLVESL
T1 sequence (P51948 whole entry partner, the tested form may be a part): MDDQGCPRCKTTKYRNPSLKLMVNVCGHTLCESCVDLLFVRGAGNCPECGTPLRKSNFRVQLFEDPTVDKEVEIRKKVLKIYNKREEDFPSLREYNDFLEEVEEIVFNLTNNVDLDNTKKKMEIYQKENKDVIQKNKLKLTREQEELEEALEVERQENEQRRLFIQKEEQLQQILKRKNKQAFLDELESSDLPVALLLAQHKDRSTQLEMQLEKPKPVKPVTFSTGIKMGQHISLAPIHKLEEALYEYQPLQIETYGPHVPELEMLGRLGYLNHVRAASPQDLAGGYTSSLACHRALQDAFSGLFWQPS

`C[C@@H]1Cc2cnc(NCc3ccccn3)nc2CN1C(=O)[C@H]1CCN(C)C[C@@H]1c1ccccc1` [Compound 35]: the “CDK7 (20 nM) pIC50” value in assay [1] is listed as 7.78. Moreover, the IC50 in assay [2] was 200 nM.

For the compound `CC[C@H]1Cc2cnc(NC3CCOCC3)nc2CN1C(=O)[C@H]1CCN(C)C[C@@H]1c1ccccc1` (relative stereo) [Compound 186], the IC50 in assay [1] and in assay [2] was greater than 10000 nM throughout.

For the compound `C[C@@H]1Cc2cnc(NCc3c(F)cccc3F)nc2CN1C(=O)[C@H]1CCN(C)C[C@@H]1c1ccccc1` [Compound 32], the “CDK7 (20 nM) pIC50” value in assay [1] came out at 7.9. For the same compound, the IC50 in assay [2] is 372 nM.

Turning to `C[C@@H]1Cc2cnc(NC3CCOCC3)nc2CN1C(=O)[C@@H]1CCN(C)C[C@H]1c1cccnc1` (relative stereo) [Compound 117], the IC50 in assay [1] is 16.2 nM; in assay [2], greater than 10000 nM.

As for `C[C@@H]1Cc2cnc(NC[C@H]3CCCO3)nc2CN1C(=O)[C@H]1CCN(C)C[C@@H]1c1ccccc1` [Compound 68], the results for the IC50 in assay [1] and in assay [2] were 14.5 nM and 2400 nM, respectively.

As to `C[C@@H]1CN(C(=O)[C@H]2CCN(C)C[C@@H]2c2ccccc2)[C@@H](C)c2nc(NC3CCOCC3)ncc21` [Compound 180b], the “CDK7 (20 nM) pIC50” value in assay [1] was 5.65. Besides, in assay [2], the IC50 is 3890 nM.

With `CO[C@H]1CC[C@@H](Nc2ncc3c(n2)CN(C(=O)[C@H]2CCN(C)C[C@@H]2c2ccccc2)[C@H](C)C3)CC1` [Compound 38], the “CDK7 (20 nM) pIC50” value in assay [1] stood at 7.46. In addition, the IC50 in assay [2] is 1380 nM.

In the case of `C[C@@H]1Cc2cnc(NC3CCOCC3)nc2CN1C(=O)[C@H]1CCN(C)C[C@@H]1C1CC1` (relative stereo) [Compound 113], the IC50 is 79.4 nM in assay [1] and 1740 nM in assay [2].

Regarding `C[C@@H]1Cc2cnc(NC3CCOCC3)nc2CN1C(=O)[C@@H]1CCN(C)C[C@H]1C1CC1` (relative stereo) [Compound 112], the IC50 in assay [1] and in assay [2] was greater than 10000 nM each time.

With `C[C@@H]1Cc2cnc(NC3CCC(F)(F)CC3)nc2CN1C(=O)[C@H]1CCN(C)C[C@@H]1c1ccccc1` [Compound 64], the “CDK7 (20 nM) pIC50” value in assay [1] is listed as greater than 8.01. Also, in assay [2], the IC50 was 141 nM.

Take `CO[C@H]1CC[C@H](Nc2ncc3c(n2)CN(C(=O)C2CCN(C)CC2c2ccnc(C)c2)[C@H](C)C3)CC1` (stereo partly drawn) [Compound 104]: the results for the IC50 in assay [1] and in assay [2] were 12.9 nM and 1230 nM, respectively.

Turning to `Cc1ccc(CNc2ncc3c(n2)CN(C(=O)[C@H]2CCN(C)C[C@@H]2c2ccccc2)[C@H](C)C3)cn1` [Compound 27], in assay [1], the “CDK7 (20 nM) pIC50” value came out at 7.50. Besides, the IC50 in assay [2] is 2090 nM.

On to `C[C@@H]1Cc2cnc(N[C@H]3CC[C@@H](C)CC3)nc2CN1C(=O)[C@H]1CCN(C)C[C@@H]1c1ccccc1` [Compound 14], for which the “CDK7 (20 nM) pIC50” value in assay [1] was 7.89. For the same compound, the IC50 in assay [2] is 479 nM.

With `C[C@@H]1Cc2cnc(NC3CCOCC3)nc2CN1C(=O)[C@H]1CCN(C)C[C@@H]1c1ccc(F)c(Cl)c1` (relative stereo) [Compound 114], the IC50 in assay [1] was 11 nM; in assay [2], 56.2 nM.

On to `C[C@@H]1Cc2cnc(NC3CCOCC3)nc2CN1C(=O)[C@@H]1CCN(C)C[C@H]1c1ccncc1` (relative stereo) [Compound 116], for which the IC50 in assay [1] is 37.2 nM; in assay [2] it was 1410 nM.

On to `C[C@@H]1Cc2cnc(NC3CC(C)(C)OC(C)(C)C3)nc2CN1C(=O)[C@H]1CCN(C)C[C@@H]1c1ccccc1` [Compound 24], for which the “CDK7 (20 nM) pIC50” value in assay [1] was determined as 7.96. For the same compound, in assay [2], the IC50 was 126 nM.

Turning to `C[C@@H]1Cc2cnc(NC3CCN(S(=O)(=O)C4CC4)CC3)nc2CN1C(=O)[C@H]1CCN(C)C[C@@H]1c1ccccc1` [Compound 41], the “CDK7 (20 nM) pIC50” value in assay [1] was found to be 6.18. For the same compound, in assay [2], the IC50 is greater than 10000 nM.

For the compound `C[C@@H]1Cc2cnc(NC3CCOCC3)nc2CN1C(=O)N1CCNC[C@@H]1c1ccccc1` [Compound 208], the “CDK7 (20 nM) pIC50” value in assay [1] came to 7.66. For the same compound, in assay [2], the IC50 was 1230 nM.

In the case of `C[C@@H]1Cc2cnc(NC3CCOCC3)nc2CN1C(=O)[C@H]1CCN(C2CC2)C[C@@H]1c1ccccc1` (single isomer, unassigned) [Compound 161], the “CDK7 (20 nM) pIC50” value in assay [1] is reported as 6.74. In addition, the IC50 in assay [2] was greater than 10000 nM.

For `C[C@@H]1Cc2cnc(NC3CCN(C(=O)C4CC4)CC3)nc2CN1C(=O)[C@H]1CCN(C)C[C@@H]1c1ccccc1` [Compound 33], the “CDK7 (20 nM) pIC50” value in assay [1] was found to be 7.88. For the same compound, the IC50 in assay [2] is 162 nM.

With `CC(C)N1CC[C@@H](C(=O)N2Cc3nc(NC4CCOCC4)ncc3C[C@H]2C)[C@H](c2ccc(Cl)c(F)c2)C1` (single isomer, unassigned) [Compound 165], the “CDK7 (20 nM) pIC50” value in assay [1] was determined as 6.10. In addition, in assay [2], the IC50 was 3240 nM.

On to `C[C@@H]1Cc2cnc(NCC(=O)N3CCCCC3)nc2CN1C(=O)[C@H]1CCN(C)C[C@@H]1c1ccccc1` [Compound 28], for which, in assay [1], the “CDK7 (20 nM) pIC50” value is 6.59. In addition, the IC50 in assay [2] was greater than 10000 nM.

`CC(C)N1CC[C@H](C(=O)N2Cc3nc(NC4CCOCC4)ncc3C[C@H]2C)[C@@H](c2ccc(Cl)c(F)c2)C1` (single isomer, unassigned) [Compound 162]: the “CDK7 (20 nM) pIC50” value in assay [1] was 6.95.
